Data set [1] deals with T1, Poly [ADP-ribose] polymerase tankyrase-2 (Homo sapiens, UniProt Q9H2K2).
T1 sequence (Q9H2K2 whole entry): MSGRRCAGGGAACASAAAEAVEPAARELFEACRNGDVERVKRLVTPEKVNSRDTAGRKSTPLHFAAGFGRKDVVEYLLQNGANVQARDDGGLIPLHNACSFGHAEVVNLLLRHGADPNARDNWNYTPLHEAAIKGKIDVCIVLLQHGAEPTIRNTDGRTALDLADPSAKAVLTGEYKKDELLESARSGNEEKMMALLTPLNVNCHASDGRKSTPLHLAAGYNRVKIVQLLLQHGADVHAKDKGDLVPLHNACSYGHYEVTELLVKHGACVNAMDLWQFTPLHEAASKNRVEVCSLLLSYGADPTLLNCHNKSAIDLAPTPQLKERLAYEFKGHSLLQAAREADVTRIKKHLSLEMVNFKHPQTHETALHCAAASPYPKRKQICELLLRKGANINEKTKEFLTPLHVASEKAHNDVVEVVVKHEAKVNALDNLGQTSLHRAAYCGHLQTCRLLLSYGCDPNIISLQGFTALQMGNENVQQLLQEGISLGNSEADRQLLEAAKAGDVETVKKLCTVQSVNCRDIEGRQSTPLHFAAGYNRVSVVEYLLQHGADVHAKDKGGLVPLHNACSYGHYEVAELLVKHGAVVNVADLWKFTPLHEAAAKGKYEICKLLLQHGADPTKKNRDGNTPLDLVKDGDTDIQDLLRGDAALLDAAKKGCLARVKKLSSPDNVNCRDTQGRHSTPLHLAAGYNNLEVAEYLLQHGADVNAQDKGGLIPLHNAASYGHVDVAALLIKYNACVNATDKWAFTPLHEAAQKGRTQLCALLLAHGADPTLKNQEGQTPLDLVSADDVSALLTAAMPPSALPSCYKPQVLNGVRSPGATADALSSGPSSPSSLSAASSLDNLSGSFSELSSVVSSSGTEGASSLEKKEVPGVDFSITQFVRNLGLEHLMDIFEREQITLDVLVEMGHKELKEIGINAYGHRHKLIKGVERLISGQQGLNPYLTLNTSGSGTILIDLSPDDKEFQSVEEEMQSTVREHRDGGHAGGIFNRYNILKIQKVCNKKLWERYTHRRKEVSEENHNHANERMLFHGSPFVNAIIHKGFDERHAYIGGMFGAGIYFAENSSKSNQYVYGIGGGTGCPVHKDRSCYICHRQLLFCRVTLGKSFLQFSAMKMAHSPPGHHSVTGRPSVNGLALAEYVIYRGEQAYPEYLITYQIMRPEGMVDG
Kind of data set: Inhibition of recombinant human N-terminal TEV cleavage site-fused/FLAG-poly his-tagged TNKS2 ARC5-SAM-PARP domain (613 to 1166 residues) expressed in Escherichia coli assessed as reduction in auto-PARylation preincubated for 10 mins followed by biotinylated-NAD+ addition and measured after 45 mins by ELISA.

Data set [2] concerns COLO 320DM. Kind of data set: Antitumor activity against human COLO320DM cells xenografted in Prkdc-NOD-SCID CB17 mouse assessed as tumor growth inhibition. It counts as functional.
In data set [3] the target is Poly [ADP-ribose] polymerase 2 (Homo sapiens, UniProt Q9UGN5). Kind of data set: Inhibition of human recombinant N-terminal GST-tagged PARP2 (2 to 583 residues) expressed in baculovirus infected Sf9 cells assessed as reduction in auto-PARylation using histone as substrate measured after 45 mins in presence of biotinylated-NAD+ by ELISA. On the technique in general: ELISA stands for enzyme-linked immunosorbent assay.

Data set [4] concerns the target T2, Tankyrase 1/2 (Homo sapiens) (UniProt Q9H2K2+O95271). Kind of data set: Inhibition of TNKS/TNKS2-mediated WNT/beta-catenin signaling pathway in human COLO320DM cells assessed as upregulation of AXIN2 expression at 0.1 uM measured after 16 hrs by Western blot analysis relative to control. It counts as cell-based. (Immunoblotting shows a protein as a band on a membrane.)

Data set [5] is described as follows: Total clearance in Sprague-Dawley rat at 3 mg/kg, iv. It counts as ADME, organism-based. As to conditions: in vivo.
The nature of data set [6]: Tmax in Sprague-Dawley rat at 3 mg/kg, po. It counts as ADME, organism-based. As to conditions: in vivo.
In data set [7] the target is T3, Cytochrome P450 2C8 (Homo sapiens, UniProt P10632).
T3 sequence (P10632 whole entry): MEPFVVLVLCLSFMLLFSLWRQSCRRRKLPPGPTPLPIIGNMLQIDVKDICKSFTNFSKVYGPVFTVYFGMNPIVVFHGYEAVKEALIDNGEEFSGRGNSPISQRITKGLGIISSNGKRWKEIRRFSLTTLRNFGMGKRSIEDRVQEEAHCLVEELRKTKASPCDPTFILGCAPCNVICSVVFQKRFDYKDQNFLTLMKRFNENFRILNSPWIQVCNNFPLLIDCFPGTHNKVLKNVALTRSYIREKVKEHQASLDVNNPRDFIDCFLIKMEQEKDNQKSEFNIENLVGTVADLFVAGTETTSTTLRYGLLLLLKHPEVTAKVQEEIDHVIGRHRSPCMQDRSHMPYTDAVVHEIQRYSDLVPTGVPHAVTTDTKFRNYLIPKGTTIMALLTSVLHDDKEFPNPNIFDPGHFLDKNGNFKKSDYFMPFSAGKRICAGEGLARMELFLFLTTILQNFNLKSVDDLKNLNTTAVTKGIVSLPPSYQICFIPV
Kind of data set: Inhibition of CYP2C8 in human liver microsomes using amodiaquine as substrate preincubated for 5 mins followed by NADPH addition and measured for 10 to 30 mins by LC-MS/MS analysis. It counts as ADME.

For data set [8], the system named is COLO 320DM. As to the kind of experiment: Antiproliferative activity against human COLO320DM cells assessed inhibition of cell growth measured after 5 days by MTT assay. It counts as functional. As to conditions: 120 h. On the technique in general: Formazan colour is commonly taken as a measure of viable cells.
A short description of data set [9]: Half life in Sprague-Dawley rat at 3 mg/kg, iv. It counts as ADME, organism-based. The following applies: in vivo.
Data set [10] deals with T2, Tankyrase 1/2 (Homo sapiens). As to the kind of experiment: Inhibition of TNKS/TNKS2-mediated WNT/beta-catenin signaling pathway in human COLO320DM cells assessed as reduction in active beta-catenin expression by measuring beta-catenin level at 0.1 uM measured after 16 hrs by Western blot analysis relative to GADPH. It counts as cell-based.
Data set [11] is described as follows: Cmax in Sprague-Dawley rat at 3 mg/kg, po. On the set-up: dose 3 mg/kg, route oral. As to conditions: in vivo. It counts as ADME, organism-based.
The subject of data set [12] is Mus musculus. As to the kind of experiment: In vivo inhibition of TNSK/TNSK2-medited WNT/beta-catenin signaling in human COLO320DM cells xenografted Prkdc-NOD-SCID CB17 mouse assessed as reduction in total beta catenin expression in tumor nuclear extract at 10 to 20 mg/kg, po administered twice daily for 5 days followed by 2 days interval for 2 cycles measured 4 hrs post-last dose by Western blot analysis. It counts as functional, organism-based.

In data set [13] the test system is COLO 320DM. Kind of data set: Antitumor activity against human COLO320DM cells xenografted in Prkdc-NOD-SCID CB17 mouse assessed as tumor growth inhibition at 20 mg/kg, ip administered twice daily for 5 days followed by 2 days interval for 2 cycles relative to control. It counts as functional. The following applies: read-out: TGI.
The target in data set [14] is Cytochrome P450 2C19 (Homo sapiens, UniProt P33261). As to the kind of experiment: Inhibition of CYP2C19 in human liver microsomes using (S)-mephenytoin as substrate preincubated for 5 mins followed by NADPH addition and measured for 10 to 30 mins by LC-MS/MS analysis. It counts as ADME.

SMILES strings stand for the structures. Calls of active or inactive are those of the source. No cut-off for these calls is given here. Some results are limits rather than exact numbers.

As a reminder, the IC50 is the concentration at which inhibition is half-maximal. As usually defined, the clearance is the volume of plasma or blood freed of the substance per unit of time. A lower clearance goes with a low capacity for elimination. A word on the Tmax: it is the time from dosing to the highest level. In general, GI50 refers to the concentration at which growth is held to half of that of the control. Lower therefore signals more potent growth inhibition. As usually defined, the half-life is how long it takes for the measured level to halve. A higher half-life goes with slow decline. In general, Cmax refers to the maximum level reached in the sampled fluid or tissue.

T2 sequence (O95271 whole entry, looked up, one chain of several): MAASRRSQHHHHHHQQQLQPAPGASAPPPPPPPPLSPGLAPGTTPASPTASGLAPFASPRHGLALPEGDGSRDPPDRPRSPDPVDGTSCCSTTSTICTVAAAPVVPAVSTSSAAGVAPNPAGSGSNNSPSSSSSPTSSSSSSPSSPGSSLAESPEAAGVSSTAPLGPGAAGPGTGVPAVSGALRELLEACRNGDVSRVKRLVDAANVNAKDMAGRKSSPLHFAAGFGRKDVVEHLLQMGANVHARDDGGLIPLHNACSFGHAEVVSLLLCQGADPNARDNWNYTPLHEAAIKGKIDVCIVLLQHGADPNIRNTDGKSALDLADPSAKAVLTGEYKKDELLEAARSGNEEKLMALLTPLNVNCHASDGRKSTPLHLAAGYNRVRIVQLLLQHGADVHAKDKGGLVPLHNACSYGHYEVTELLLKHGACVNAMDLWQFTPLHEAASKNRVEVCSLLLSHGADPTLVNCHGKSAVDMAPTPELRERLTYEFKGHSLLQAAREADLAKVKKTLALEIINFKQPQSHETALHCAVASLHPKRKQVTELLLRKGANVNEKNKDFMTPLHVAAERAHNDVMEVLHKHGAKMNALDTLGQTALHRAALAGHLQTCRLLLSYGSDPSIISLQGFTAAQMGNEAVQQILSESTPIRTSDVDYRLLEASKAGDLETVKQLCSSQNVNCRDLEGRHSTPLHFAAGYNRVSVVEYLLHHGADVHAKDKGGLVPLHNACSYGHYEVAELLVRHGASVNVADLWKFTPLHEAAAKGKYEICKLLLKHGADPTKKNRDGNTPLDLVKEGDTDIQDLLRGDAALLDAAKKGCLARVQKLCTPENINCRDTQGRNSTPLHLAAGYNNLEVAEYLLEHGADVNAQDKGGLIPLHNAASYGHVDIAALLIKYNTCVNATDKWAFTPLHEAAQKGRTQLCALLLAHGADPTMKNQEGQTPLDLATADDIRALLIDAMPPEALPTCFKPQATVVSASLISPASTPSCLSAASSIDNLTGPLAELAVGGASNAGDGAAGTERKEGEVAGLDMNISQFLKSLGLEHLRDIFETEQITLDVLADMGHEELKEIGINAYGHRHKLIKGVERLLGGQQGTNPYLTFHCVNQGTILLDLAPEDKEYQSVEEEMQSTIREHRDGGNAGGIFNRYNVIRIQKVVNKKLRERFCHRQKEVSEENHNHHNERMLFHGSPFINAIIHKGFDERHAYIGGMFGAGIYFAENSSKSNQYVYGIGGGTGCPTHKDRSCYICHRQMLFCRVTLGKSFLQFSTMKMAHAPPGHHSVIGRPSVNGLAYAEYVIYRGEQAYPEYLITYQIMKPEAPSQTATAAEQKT
Chain of Cytochrome P450 2C19 (P33261 whole entry): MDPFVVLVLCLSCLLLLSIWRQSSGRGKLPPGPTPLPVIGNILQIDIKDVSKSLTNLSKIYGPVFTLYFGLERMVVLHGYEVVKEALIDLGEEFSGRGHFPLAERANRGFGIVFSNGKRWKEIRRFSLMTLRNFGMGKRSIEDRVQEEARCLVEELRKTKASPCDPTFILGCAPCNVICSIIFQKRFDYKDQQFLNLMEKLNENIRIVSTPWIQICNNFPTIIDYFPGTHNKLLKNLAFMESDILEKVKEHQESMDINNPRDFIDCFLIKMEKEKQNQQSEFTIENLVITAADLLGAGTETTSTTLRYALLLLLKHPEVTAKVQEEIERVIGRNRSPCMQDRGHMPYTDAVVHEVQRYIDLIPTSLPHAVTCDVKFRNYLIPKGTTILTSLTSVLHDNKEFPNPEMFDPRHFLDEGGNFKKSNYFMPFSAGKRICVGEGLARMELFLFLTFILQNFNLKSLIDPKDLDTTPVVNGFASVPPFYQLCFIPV
Chain of Poly [ADP-ribose] polymerase 2 (Q9UGN5 whole entry, the tested form may be a part): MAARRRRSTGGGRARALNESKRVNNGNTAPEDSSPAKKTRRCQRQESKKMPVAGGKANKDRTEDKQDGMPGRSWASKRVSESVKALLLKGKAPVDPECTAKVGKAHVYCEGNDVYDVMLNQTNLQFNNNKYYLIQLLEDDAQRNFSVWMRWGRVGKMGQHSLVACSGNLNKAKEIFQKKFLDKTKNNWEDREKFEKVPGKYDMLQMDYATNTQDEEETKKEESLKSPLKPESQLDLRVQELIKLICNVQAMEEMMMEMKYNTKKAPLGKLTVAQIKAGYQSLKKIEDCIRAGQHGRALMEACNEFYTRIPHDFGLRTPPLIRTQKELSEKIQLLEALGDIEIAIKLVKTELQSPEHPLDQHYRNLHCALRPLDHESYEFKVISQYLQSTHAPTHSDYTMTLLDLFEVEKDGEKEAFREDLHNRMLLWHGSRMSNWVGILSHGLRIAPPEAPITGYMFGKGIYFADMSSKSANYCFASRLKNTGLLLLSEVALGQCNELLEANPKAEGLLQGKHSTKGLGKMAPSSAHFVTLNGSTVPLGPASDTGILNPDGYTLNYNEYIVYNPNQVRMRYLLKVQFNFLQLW

Turning to `CN1CCN(c2cc(F)c3c(c2)N(C)C(=O)C32CCN(c3nc4c(c(=O)[nH]3)CCCN4C)CC2)CC1`, in [1], the IC50 was 12.3 nM. Also, the TGI result in data set [2] is “inactive”.

Take `C[C@@H]1CN(c2cc(F)c3c(c2)N(C)C(=O)C32CCN(c3nc4c(c(=O)[nH]3)CCCN4C)CC2)C[C@H](C)O1`: the concentration for half-maximal inhibition (IC50) in data set [3] is 1240 nM; in data set [1] it was 39.2 nM; in data set [7], greater than 10000 nM; in data set [14], greater than 10000 nM. The fold change (FC) in data set [4] turned out to be 5.23; in data set [10], 0.39. Further, in [5], the clearance is 3.17 mL/min/kg. In addition, in [6], the time of peak concentration (Tmax) was 0.33 h. The GI50 in [8] stood at 35 nM. For the same molecule, the half-life in [9] is 3.61 h. For the same molecule, the peak level in [11] (Cmax) was 12.7 µM. Further, the inhibition result in [12] is “Active”. For the same molecule, in data set [13], the inhibition in vivo at 20 mg/kg is 71.1%.
